Patent US20100226980A1, “NOVEL TABLET BASED ON S-ADENOSYL-METHIONINE” (VETOQUINOL, priority 2009, published 2010)

Assay: Pharmacokinetic tests on dogs
Format: in vivo
Experimental: In order to confirm the results obtained in vitro, pharmacokinetic tests were carried out on dogs.

Q: For `C[S+](CC[C@H](N)C(=O)O)C[C@H]1O[C@@H](n2cnc3c(N)ncnc32)[C@H](O)[C@@H]1O.Cc1ccc(S(=O)(=O)[O-])cc1` (stereo partly drawn) [SAMe, S-Adenosyl-Methionine Paratoluene Sulphonate], which “absorption of SAMe” value (after administration of tablet) is on record?
A: absorbed in the stomach as soon as it is administered

Q: And the “degradation of SAMe” value (after administration of tablet)?
A: not degraded

Q: What about the “pharmacokinetic profiles of the different dogs” value (variability between animals) of the same compound?
A: homogeneous and vary very little
